Source: patent US20240059671A1, “TYROSINE KINASE 2 (TYK2) DEGRADATION COMPOUNDS AND METHODS OF USE” (CULLGEN (SHANGHAI), INC., priority 2020, published 2024)
Entries after “also recorded” stand apart in the source; their conditions may differ.

Target: TYK2 (Homo sapiens, UniProt P29597)
Experiment: TYK2 protein degradation in NOMO-1 cells by immunoblotting
Format: cell-based
Parameters: endogenous in cells
Conditions: for TYK2 Degradation (NOMO-1, 100 nM) / TYK2 Degradation (NOMO-1, 10 nM): NOMO-1 cells
Procedure, shortened: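 NOMO-1 cells in RPMI 1640 with 10% FBS were exposed to compound at 0.1–1000 nM for 16 hours. TYK2 levels in RIPA lysates were measured by SDS-PAGE immunoblot with chemiluminescent detection and band densitometry.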

Sequence of TYK2 (P29597 whole entry): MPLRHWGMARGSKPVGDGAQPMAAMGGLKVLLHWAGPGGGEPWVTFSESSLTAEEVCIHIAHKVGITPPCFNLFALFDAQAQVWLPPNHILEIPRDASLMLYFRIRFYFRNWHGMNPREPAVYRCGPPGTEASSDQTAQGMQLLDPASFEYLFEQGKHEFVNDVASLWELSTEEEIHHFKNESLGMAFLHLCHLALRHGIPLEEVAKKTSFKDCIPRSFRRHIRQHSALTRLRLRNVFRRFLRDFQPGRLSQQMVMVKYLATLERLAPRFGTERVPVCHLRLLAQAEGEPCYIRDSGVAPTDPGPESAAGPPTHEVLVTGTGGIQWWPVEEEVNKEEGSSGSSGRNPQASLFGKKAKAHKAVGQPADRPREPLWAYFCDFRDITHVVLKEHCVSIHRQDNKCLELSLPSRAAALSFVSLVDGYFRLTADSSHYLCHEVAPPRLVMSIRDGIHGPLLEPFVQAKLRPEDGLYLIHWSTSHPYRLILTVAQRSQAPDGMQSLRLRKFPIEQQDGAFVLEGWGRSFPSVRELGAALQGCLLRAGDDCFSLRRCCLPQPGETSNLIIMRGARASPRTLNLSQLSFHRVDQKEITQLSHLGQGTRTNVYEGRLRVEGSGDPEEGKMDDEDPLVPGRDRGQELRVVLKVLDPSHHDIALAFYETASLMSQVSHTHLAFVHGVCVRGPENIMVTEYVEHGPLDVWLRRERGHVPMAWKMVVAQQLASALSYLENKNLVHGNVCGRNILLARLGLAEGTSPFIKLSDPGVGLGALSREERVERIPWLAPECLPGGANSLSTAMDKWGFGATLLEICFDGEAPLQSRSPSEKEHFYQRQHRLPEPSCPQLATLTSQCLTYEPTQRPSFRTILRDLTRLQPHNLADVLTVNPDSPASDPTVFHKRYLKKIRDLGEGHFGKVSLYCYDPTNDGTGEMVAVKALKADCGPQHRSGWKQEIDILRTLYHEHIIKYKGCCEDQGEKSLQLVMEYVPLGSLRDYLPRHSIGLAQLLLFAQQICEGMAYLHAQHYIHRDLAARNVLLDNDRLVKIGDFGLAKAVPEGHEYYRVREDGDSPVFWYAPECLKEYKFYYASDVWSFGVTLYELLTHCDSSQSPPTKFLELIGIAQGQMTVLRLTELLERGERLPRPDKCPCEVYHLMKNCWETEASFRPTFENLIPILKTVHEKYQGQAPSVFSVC

Row | Structure (SMILES) | TYK2 Degradation (NOMO-1, 100 nM) | TYK2 Degradation (NOMO-1, 10 nM) | Reduction of TYK2 protein levels over a dose range (FIG. 2) (NOMO-1 cells, 0.1, 1, 10, 100 and 1000 nM, 16 hours)
1 | CNC(=O)c1nnc(Nc2ccc(C(=O)NCCCCNc3cccc4c3C(=O)N(C3CCC(=O)NC3=O)C4=O)cn2)cc1Nc1cccc(-c2ncn(C)n2)c1OC (stereo not drawn) [CPD-154, 6-((5-((4-((2-(2,6-Dioxopiperidin-3-yl)-1,3-dioxoisoindolin-4-yl)amino)butyl)carbamoyl)pyridin-2-yl)amino)-4-((2-methoxy-3-(1-methyl-1H-1,2,4-triazol-3-yl)phenyl)amino)-N-methylpyridazine-3-carboxamide] | B (B: <60% TYK2 degradation, and >20% TYK2 degradation) | – | –
2 | CNC(=O)c1nnc(Nc2ccc(C(=O)NCCCCCCNc3cccc4c3C(=O)N(C3CCC(=O)NC3=O)C4=O)cn2)cc1Nc1cccc(-c2ncn(C)n2)c1OC (stereo not drawn) [CPD-156, 6-((5-((6-((2-(2,6-Dioxopiperidin-3-yl)-1,3-dioxoisoindolin-4-yl)amino)hexyl)carbamoyl)pyridin-2-yl)amino)-4-((2-methoxy-3-(1-methyl-1H-1,2,4-triazol-3-yl)phenyl)amino)-N-methylpyridazine-3-carboxamide] | B (B: <60% TYK2 degradation, and >20% TYK2 degradation) | – | –
3 | CNC(=O)c1nnc(Nc2ccc(C(=O)NCCCCCCCNc3cccc4c3C(=O)N(C3CCC(=O)NC3=O)C4=O)cn2)cc1Nc1cccc(-c2ncn(C)n2)c1OC (stereo not drawn) [CPD-157, 6-((5-((7-((2-(2,6-dioxopiperidin-3-yl)-1,3-dioxoisoindolin-4-yl)amino)heptyl)carbamoyl)pyridin-2-yl)amino)-4-((2-methoxy-3-(1-methyl-1H-1,2,4-triazol-3-yl)phenyl)amino)-N-methylpyridazine-3-carboxamide] | C (C: ≤20% TYK2 degradation) | A (A: ≥60% TYK2 degradation) | concentration-dependently reduced the TYK2 proteins levels; also recorded: highly potent in reducing TYK2 protein levels
4 | CNC(=O)c1nnc(Nc2ccc(C(=O)NCCOCCNc3cccc4c3C(=O)N(C3CCC(=O)NC3=O)C4=O)cn2)cc1Nc1cccc(-c2ncn(C)n2)c1OC (stereo not drawn) [CPD-159, 6-((5-((2-(2-((2-(2,6-dioxopiperidin-3-yl)-1,3-dioxoisoindolin-4-yl)amino)ethoxy)ethyl)carbamoyl)pyridin-2-yl)amino)-4-((2-methoxy-3-(1-methyl-1H-1,2,4-triazol-3-yl)phenyl)amino)-N-methylpyridazine-3-carboxamide] | A (A: ≥60% TYK2 degradation) | A (A: ≥60% TYK2 degradation) | –
5 | CNC(=O)c1nnc(Nc2ccc(C#CC3CCN(CCCCC(=O)N[C@H](C(=O)N4C[C@H](O)C[C@H]4C(=O)N[C@@H](C)c4ccc(-c5scnc5C)cc4)C(C)(C)C)CC3)cn2)cc1Nc1cccc(-c2ncn(C)n2)c1OC [CPD-160, 6-((5-((1-(5-(((S)-1-((2S,4R)-4-hydroxy-2-(((S)-1-(4-(4-methylthiazol-5-yl)phenyl)ethyl)carbamoyl)pyrrolidin-1-yl)-3,3-dimethyl-1-oxobutan-2-yl)amino)-5-oxopentyl)piperidin-4-yl)ethynyl)pyridin-2-yl)amino)-4-((2-methoxy-3-(1-methyl-1H-1,2,4-triazol-3-yl)phenyl)amino)-N-methylpyridazine-3-carboxamide] | C (C: ≤20% TYK2 degradation) | – | –
6 | CNC(=O)c1nnc(Nc2ccc(C(=O)NC3CC(CC(=O)N[C@H](C(=O)N4C[C@H](O)C[C@H]4C(=O)N[C@@H](C)c4ccc(-c5scnc5C)cc4)C(C)(C)C)C3)cn2)cc1Nc1cccc(-c2ncn(C)n2)c1OC (stereo partly drawn) [CPD-161, 6-((5-((3-(2-(((S)-1-((2S,4R)-4-hydroxy-2-(((S)-1-(4-(4-methylthiazol-5-yl)phenyl)ethyl)carbamoyl)pyrrolidin-1-yl)-3,3-dimethyl-1-oxobutan-2-yl)amino)-2-oxoethyl)cyclobutyl)carbamoyl)pyridin-2-yl)amino)-4-((2-methoxy-3-(1-methyl-1H-1,2,4-triazol-3-yl)phenyl)amino)-N-methylpyridazine-3-carboxamide] | A (A: ≥60% TYK2 degradation) | C (C: ≤20% TYK2 degradation) | –
7 | CNC(=O)c1nnc(Nc2ccc(CNCCCCCCCC(=O)N[C@H](C(=O)N3C[C@H](O)C[C@H]3C(=O)N[C@@H](C)c3ccc(-c4scnc4C)cc3)C(C)(C)C)cn2)cc1Nc1cccc(-c2ncn(C)n2)c1OC [CPD-162, 6-((5-(((8-(((S)-1-((2S,4R)-4-hydroxy-2-(((S)-1-(4-(4-methylthiazol-5-yl)phenyl)ethyl)carbamoyl)pyrrolidin-1-yl)-3,3-dimethyl-1-oxobutan-2-yl)amino)-8-oxooctyl)amino)methyl)pyridin-2-yl)amino)-4-((2-methoxy-3-(1-methyl-1H-1,2,4-triazol-3-yl)phenyl)amino)-N-methylpyridazine-3-carboxamide] | A (A: ≥60% TYK2 degradation) | B (B: <60% TYK2 degradation, and >20% TYK2 degradation) | –
8 | CNC(=O)c1nnc(Nc2ccc(C(=O)NCCCCNc3ccc4c(c3)C(=O)N(C3CCC(=O)NC3=O)C4=O)cn2)cc1Nc1cccc(-c2ncn(C)n2)c1OC (stereo not drawn) [CPD-163, 6-((5-((4-((2-(2,6-dioxopiperidin-3-yl)-1,3-dioxoisoindolin-5-yl)amino)butyl)carbamoyl)pyridin-2-yl)amino)-4-((2-methoxy-3-(1-methyl-1H-1,2,4-triazol-3-yl)phenyl)amino)-N-methylpyridazine-3-carboxamide] | C (C: ≤20% TYK2 degradation) | – | –
9 | CNC(=O)c1nnc(Nc2ccc(C(=O)NCCCCCCNc3ccc4c(c3)C(=O)N(C3CCC(=O)NC3=O)C4=O)cn2)cc1Nc1cccc(-c2ncn(C)n2)c1OC (stereo not drawn) [CPD-165, 6-((5-((6-((2-(2,6-dioxopiperidin-3-yl)-1,3-dioxoisoindolin-5-yl)amino)hexyl)carbamoyl)pyridin-2-yl)amino)-4-((2-methoxy-3-(1-methyl-1H-1,2,4-triazol-3-yl)phenyl)amino)-N-methylpyridazine-3-carboxamide] | C (C: ≤20% TYK2 degradation) | C (C: ≤20% TYK2 degradation) | –
10 | CNC(=O)c1nnc(Nc2ccc(C(=O)NCCCCCCCNc3ccc4c(c3)C(=O)N(C3CCC(=O)NC3=O)C4=O)cn2)cc1Nc1cccc(-c2ncn(C)n2)c1OC (stereo not drawn) [CPD-166, 6-((5-((7-((2-(2,6-dioxopiperidin-3-yl)-1,3-dioxoisoindolin-5-yl)amino)heptyl)carbamoyl)pyridin-2-yl)amino)-4-((2-methoxy-3-(1-methyl-1H-1,2,4-triazol-3-yl)phenyl)amino)-N-methylpyridazine-3-carboxamide] | C (C: ≤20% TYK2 degradation) | – | –
11 | CNC(=O)c1nnc(Nc2ccc(C(=O)NCCCCCCCCNc3ccc4c(c3)C(=O)N(C3CCC(=O)NC3=O)C4=O)cn2)cc1Nc1cccc(-c2ncn(C)n2)c1OC (stereo not drawn) [CPD-167, 6-((5-((8-((2-(2,6-dioxopiperidin-3-yl)-1,3-dioxoisoindolin-5-yl)amino)octyl)carbamoyl)pyridin-2-yl)amino)-4-((2-methoxy-3-(1-methyl-1H-1,2,4-triazol-3-yl)phenyl)amino)-N-methylpyridazine-3-carboxamide] | C (C: ≤20% TYK2 degradation) | A (A: ≥60% TYK2 degradation) | –
